Measurements as given in the supplement of paper PMC13380429.

Experiments:
[1] = system: A549-ACE2 infected with SARS-CoV-2; assay: cell count relative to DMSO; higher = less toxic; conditions: 24 h
Calu-3 [2] = assay: cell viability relative to DMSO; higher = less toxic; conditions: 72 h
Caco-2 [3] = assay: as above; conditions: 72 h
HepG2 [4] = assay: as above; conditions: 72 h
U2OS [5] = assay: as above; conditions: 72 h
Vero E6 [6] = assay: as above; conditions: 72 h
[7] = system: A549-ACE2 infected with SARS-CoV-2; assay: SARS-CoV-2 infection rate relative to DMSO; higher = more infection; conditions: 24 h
Calu-3 [8] = assay: relative viability EC50 (midpoint between 100% and the lowest measured viability); higher = less toxic; conditions: 72 h
Caco-2 [9] = assay: as above; conditions: 72 h
HepG2 [10] = assay: as above; conditions: 72 h
U2OS [11] = assay: as above; conditions: 72 h
Vero E6 [12] = assay: as above; conditions: 72 h
Calu-3 [13] = assay: drug sensitivity score (DSS) for viability; higher = more toxic; extreme values may be limits of the assay; conditions: 72 h
Caco-2 [14] = assay: as above; conditions: 72 h
HepG2 [15] = assay: as above; conditions: 72 h
U2OS [16] = assay: as above; conditions: 72 h
Vero E6 [17] = assay: as above; conditions: 72 h
A549-ACE2 [18] = assay: drug-induced phospholipidosis relative to tamoxifen; higher = more phospholipidosis
A549-ACE2 [19] = assay: phospholipidosis EC50; higher = less potent phospholipidosis inducer
[20] = system: A549-ACE2 infected with SARS-CoV-2; assay: morphology score (similarity to uninfected cells); higher = more like uninfected cells; conditions: 24 h

Cc1cccc(/C=N/Nc2cc(N3CCOCC3)n3nc(-c4ccncc4)cc3n2)c1 [APY0201]
Conditions	SARS-CoV-2 infection rate [%]	cell count [%]	cell viability [%]	morphology score	phospholipidosis EC50 [nM]
A549-ACE2 [19], 24 h	–	–	–	–	300
A549-ACE2 [19], 48 h	–	–	–	–	1080
A549-ACE2 [19], 72 h	–	–	–	–	851
Caco-2 [3], 1 nM	–	–	95.5	–	–
Caco-2 [3], 10 nM	–	–	101	–	–
Caco-2 [3], 100 nM	–	–	92.8	–	–
Caco-2 [3], 1000 nM	–	–	97	–	–
Caco-2 [3], 10000 nM	–	–	80.1	–	–
Calu-3 [2], 1 nM	–	–	111	–	–
Calu-3 [2], 10 nM	–	–	101	–	–
Calu-3 [2], 100 nM	–	–	87.8	–	–
Calu-3 [2], 1000 nM	–	–	85.8	–	–
Calu-3 [2], 10000 nM	–	–	98.1	–	–
HepG2 [4], 1 nM	–	–	99.8	–	–
HepG2 [4], 10 nM	–	–	98.9	–	–
HepG2 [4], 100 nM	–	–	82.8	–	–
HepG2 [4], 1000 nM	–	–	31.3	–	–
HepG2 [4], 10000 nM	–	–	22.3	–	–
U2OS [5], 1 nM	–	–	94.2	–	–
U2OS [5], 10 nM	–	–	97.7	–	–
U2OS [5], 100 nM	–	–	93.9	–	–
U2OS [5], 1000 nM	–	–	91.2	–	–
U2OS [5], 10000 nM	–	–	77.6	–	–
Vero E6 [6], 1 nM	–	–	110	–	–
Vero E6 [6], 10 nM	–	–	104	–	–
Vero E6 [6], 100 nM	–	–	96.7	–	–
Vero E6 [6], 1000 nM	–	–	45.6	–	–
Vero E6 [6], 10000 nM	–	–	38.2	–	–
[1], 0.3 µM	–	113	–	–	–
[1], 3 µM	–	98	–	–	–
[1], 10 µM	–	94	–	–	–
[1], 30 µM	–	91	–	–	–
[7], 0.3 µM	41	–	–	–	–
[7], 3 µM	72	–	–	–	–
[7], 10 µM	72	–	–	–	–
[7], 30 µM	65	–	–	–	–
[20], 0.3 µM	–	–	–	0.21	–
[20], 3 µM	–	–	–	-0.06	–
[20], 10 µM	–	–	–	-0.03	–
[20], 30 µM	–	–	–	-0.04	–

Conditions	drug sensitivity score	relative viability EC50 [nM]
Caco-2 [9]	–	> 10000
Caco-2 [14]	1	–
Calu-3 [8]	–	> 10000
Calu-3 [13]	2	–
HepG2 [10]	–	240
HepG2 [15]	14.8	–
U2OS [11]	–	> 10000
U2OS [16]	1.2	–
Vero E6 [12]	–	392
Vero E6 [17]	10.4	–

drug-induced phospholipidosis [%], A549-ACE2 [18]
Conditions	0.3 µM	0.833333 µM	3.33333 µM	6.66667 µM	10 µM	30 µM
24 h	100	98.4	102	100	85.1	97.8
48 h	105	98.3	47.8	39.8	–	61.8
72 h	141	95	33.5	42.7	–	–
